Assay results published in patent publication US7592347B2, “Piperazine derivates and their use for the treatment of neurological and psychiatric diseases” (Glaxo Group Limited, priority 2003, dated 2009).
Where a name gives a salt, the structure may show the parent alone.

molecular target: T1, histamine H3 receptor (Homo sapiens, UniProt Q9Y5N1); assay: Histamine H3 functional antagonist assay ([35S]GTPγS SPA, membranes of CHO K1 cells expressing human H3); type: biochemical; settings: functional antagonism of histamine (0.3 μM) stimulated [35S]GTPγS binding, membranes of CHO K1 cells with human histamine H3
T1 construct: expressed in transfected cells; host or cells: CHO K1 cells carrying pSwitch, transfected with pGeneH3 and induced with mifepristone; clone 3H3; membranes
Experimental: A membrane preparation containing histamine H3 receptors may be prepared in accordance with the following procedures:
Ligated DNA was transformed into competent DH5α E. coli host bacterial cells and plated onto Luria Broth (LB) agar containing Zeocin™ (an antibiotic which allows the selection of cells expressing the sh ble gene which is present on pGene and pSwitch) at 50 μg ml^−1. Colonies containing the re-ligated plasmid were identified by restriction analysis. DNA for transfection into mammalian cells was prepared from 250 ml cultures of the host bacterium containing the pGeneH3 plasmid and isolated using a DNA preparation kit (Qiagen Midi-Prep) as per manufacturers guidelines (Qiagen).
CHO K1 cells previously transfected with the pSwitch regulatory plasmid (InVitrogen) were seeded at 2×10e6 cells per T75 flask in Complete Medium, containing Hams F12 (GIBCOBRL, Life Technologies) medium supplemented with 10% v/v dialysed foetal bovine serum, L-glutamine, and hygromycin (100 μg ml^−1), 24 hours prior to use. Plasmid DNA was transfected into the cells using Lipofectamine plus according to the manufacturers guidelines (InVitrogen). 48 hours post transfection cells were placed into complete medium supplemented with 500 μg ml^−1 Zeocin™.
10-14 days post selection 10 nM Mifepristone (InVitrogen), was added to the culture medium to induce the expression of the receptor. […] Approximately 1×10e7 cells were examined for receptor expression by staining with a rabbit polyclonal antibody, 4a, raised against the N-terminal domain of the histamine H3 receptor, incubated on ice for 60 minutes, followed by two washes in sorting medium. […] Following two further washes with Sorting Medium, cells were filtered through a 50 μm Filcon™ (BD Biosciences) and then analysed on a FACS Vantage SE Flow Cytometer fitted with an Automatic Cell Deposition Unit. […] Positively stained cells were sorted as single cells into 96-well plates, containing Complete Medium containing 500 μg ml^−1 Zeocin™ and allowed to expand before reanalysis for receptor expression via antibody and ligand binding studies.
All steps of the protocol are carried out at 4° C. and with pre-cooled reagents. The cell pellet is resuspended in 10 volumes of buffer A2 containing 50 mM N-2-hydroxyethylpiperazine-N′-2-ethanesulfonic acid (HEPES)(pH 7.40) supplemented with 10e−4M leupeptin (acetyl-leucyl-leucyl-arginal; Sigma L2884), 25 μg/ml bacitracin (Sigma B0125), 1 mM ethylenediamine tetra-acetic acid (EDTA), 1 mM phenylmethylsulfonyl fluoride (PMSF) and 2×10e−6M pepstain A (Sigma). The cells are then homogenised by 2×15 second bursts in a 1 litre glass Waring blender, followed by centrifugation at 500 g for 20 minutes. The supernatant is then spun at 48,000 g.for 30 minutes. The pellet is resuspended in 4 volumes of buffer A2 by vortexing for 5 seconds, followed by homogenisation in a Dounce homogeniser (10-15 strokes). At this point the preparation is aliquoted into polypropylene tubes and stored at −70° C. […]
The plate is then incubated on a shaker at room temperature for 30 minutes followed by centrifugation for 5 minutes at 1500 rpm. The plate is read between 3 and 6 hours after completion of centrifuge run in a Wallac Microbeta counter on a 1 minute normalised tritium count protocol. Data is analysed using a 4-parameter logistic equation. Basal activity used as minimum i.e. histamine not added to well.

T1 sequence (Q9Y5N1 whole entry): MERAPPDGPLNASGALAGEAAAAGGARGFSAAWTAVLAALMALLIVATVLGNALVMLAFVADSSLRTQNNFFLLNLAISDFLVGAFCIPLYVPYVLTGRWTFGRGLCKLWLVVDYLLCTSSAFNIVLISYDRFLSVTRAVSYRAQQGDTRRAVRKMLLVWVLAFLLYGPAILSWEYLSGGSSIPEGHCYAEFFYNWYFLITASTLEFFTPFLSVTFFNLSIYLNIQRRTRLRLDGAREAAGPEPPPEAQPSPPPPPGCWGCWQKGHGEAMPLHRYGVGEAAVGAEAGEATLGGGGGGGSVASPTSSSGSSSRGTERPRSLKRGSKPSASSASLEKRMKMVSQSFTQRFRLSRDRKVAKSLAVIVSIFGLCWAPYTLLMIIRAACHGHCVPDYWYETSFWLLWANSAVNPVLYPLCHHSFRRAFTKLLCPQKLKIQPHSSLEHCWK

**Q.** For `CC(C)N1CCCN(C(=O)C2CCN(c3ccc(OC(F)F)cc3)CC2)CC1` [Example E59, 1-Isopropyl-4-[1-(4-difluoromethoxyphenyl)-piperidine-4-carbonyl]-[1,4]-diazepane], which Kb is on record?
**A.** < 3.16 nM

**Q.** `CC(C)N1CCCN(C(=O)C2CCN(c3ccc(Oc4ccccc4)cc3)CC2)CC1` [Example E61, 1-Isopropyl-4-[1-(4-phenoxyphenyl)-piperidine-4-carbonyl]-[1,4]-diazepane] was tested. Which Kb did it give?
**A.** < 3.16 nM

**Q.** With `COc1ccc(N2CCC(C(=O)N3CCCN(C(C)C)CC3)CC2)cn1` [Example E62, 1-Isopropyl-4-[1-(6-methoxypyridin-3-yl)-piperidine-4-carbonyl]-[1,4]-diazepane] as the compound, how does the Kb read?
**A.** < 3.16 nM

**Q.** With `CC(C)N1CCCN(C(=O)C2CCN(c3ccc(C#N)c(F)c3F)CC2)CC1` [Example E63, 1-Isopropyl-4-[1-(4-cyano-2,3-difluorophenyl)-piperidine-4-carbonyl]-[1,4]-diazepane] as the compound, how does the Kb read?
**A.** < 3.16 nM

**Q.** How did the Kb turn out when `CC(C)N1CCCN(C(=O)C2CCN(c3ccc(C#N)cc3Cl)CC2)CC1` [Example E64, 1-Isopropyl-4-[1-(4-cyano-2-chlorophenyl)-piperidine-4-carbonyl]-[1,4]-diazepane] was run?
**A.** < 3.16 nM

**Q.** `N#Cc1ccc(N2CCC(C(=O)N3CCCN(C4CCC4)CC3)CC2)c(Cl)c1` [Example E65, 1-Cyclobutyl-4-[1-(4-cyano-2-chlorophenyl)-piperidine-4-carbonyl]-[1,4]-diazepane] was tested. Which Kb did it give?
**A.** < 3.16 nM

**Q.** Which Kb does the source give for `N#Cc1ccc(N2CCC(C(=O)N3CCCN(C4CCC4)CC3)CC2)cc1Cl` [Example E66, 1-Cyclobutyl-4-[1-(4-cyano-3-chlorophenyl)-piperidine4-carbonyl]-[1,4]-diazepane] here?
**A.** < 3.16 nM

**Q.** How did the Kb turn out when `N#Cc1ccc(N2CCC(C(=O)N3CCCN(C4CCC4)CC3)CC2)cc1F` [Example E67, 1-Cyclobutyl-4-[1-(4-cyano-3-fluorophenyl)-piperidine4-carbonyl]-[1,4]-diazepane] was run?
**A.** < 3.16 nM

**Q.** Which Kb does the source give for `N#Cc1ccc(N2CCC(C(=O)N3CCCN(C4CCC4)CC3)CC2)cc1C(F)(F)F` [Example E68, 1-Cyclobutyl-4-[1-(4-cyano-3-trifluoromethylphenyl)-piperidine4-carbonyl]-[1,4]-diazepane] here?
**A.** < 3.16 nM

**Q.** `CC(C)N1CCN(C(=O)C2CCN(c3ccc(C#N)cc3)CC2)C[C@@H]1C` [Example E70, (S)-1-Isopropyl-4-[1-(4-cyanophenyl)-piperidine-4-carbonyl]-2-methylpiperazine] was tested. Which Kb did it give?
**A.** < 3.16 nM

**Q.** With `CC(C)N1CCN(C(=O)C2CCN(c3ccc(C#N)nc3)CC2)C[C@@H]1C` [Example E78, (S)-1-Isopropyl-4-[1-(6-cyanopyridin-3-yl)-piperidine-4-carbonyl]-2-methyl piperazine] as the compound, how does the Kb read?
**A.** < 3.16 nM

**Q.** Which Kb does the source give for `CC(C)N1CCN(C(=O)C2CCN(c3ccc(C(F)(F)F)nc3)CC2)C[C@@H]1C` [Example E79, (S)-1-Isopropyl-4-[1-(6-trifluoromethylpyridin-3-yl)-piperidine-4-carbonyl]-2-methyl piperazine] here?
**A.** < 1 nM

**Q.** How did the Kb turn out when `CC(C)N1CCN(C(=O)C2CCN(c3ccc(C#N)cn3)CC2)C[C@@H]1C` [Example E86, (S)-1-Isopropyl-4-[1-(5-cyanopyridin-2-yl)-piperidine4-carbonyl]-2-methyl piperazine] was run?
**A.** < 3.16 nM

**Q.** `CC(C)N1CCN(C(=O)C2CCN(c3cnc(C(F)(F)F)cn3)CC2)C[C@@H]1C` [Example E87, (S)-1-Isopropyl-4-[1-(5-trifluoromethyl-pyrazin-2-yl)-piperidine4-carbonyl]-2-methyl piperazine] was tested. Which Kb did it give?
**A.** < 3.16 nM

**Q.** `CC(C)N1CCN(C(=O)C2CCN(c3ccc(C(F)(F)F)nn3)CC2)C[C@@H]1C` [Example E88, (S)-1-Isopropyl-4-[1-(6-trifluoromethyl-pyridazin-3-yl)-piperidine-4-carbonyl]-2-methyl piperazine] was tested. Which Kb did it give?
**A.** < 3.16 nM

**Q.** With `CC(C)N1CCN(C(=O)C2CCN(c3ccc(-c4nnc(-c5ccccc5)o4)cc3)CC2)CC1` [Example E90, 1-Isopropyl-4-{1-[4-(5-phenyl-1,3,4-oxadiazol-2-yl)phenyl]-piperidine-4-carbonyl} piperazine] as the compound, how does the Kb read?
**A.** < 3.16 nM

**Q.** For `CC(C)N1CCN(C(=O)C2CCN(c3ccc4ncccc4c3)CC2)CC1` [Example E91, 1-Isopropyl-4-[1-(quinolin-6-yl)-piperidine4-carbonyl]piperazine], which Kb is on record?
**A.** < 3.16 nM

**Q.** How did the Kb turn out when `CC(C)N1CCN(C(=O)C2CCN(c3ccc(C(F)(F)F)nc3)CC2)CC1` [Example E96, 1-Isopropyl-4-[1-(6-trifluoromethylpyridin-3-yl)-piperidine-4-carbonyl]-piperazine] was run?
**A.** < 0.316 nM

**Q.** For `O=C(C1CCN(c2ccc(C(F)(F)F)nc2)CC1)N1CCN(C2CCC2)CC1` [Example E97, 1-Cyclobutyl-4-[1-(6-trifluoromethylpyridin-3-yl)-piperidine-4-carbonyl]piperazine], which Kb is on record?
**A.** < 3.16 nM

**Q.** `CC(C)N1CCN(C(=O)C2CCN(c3cnc(C(F)(F)F)cn3)CC2)CC1` [Example E102, 1-Isopropyl-4-[1-(5-trifluoromethyl-pyrazin-2-yl)-piperidine4-carbonyl]-piperazine] was tested. Which Kb did it give?
**A.** < 3.16 nM

**Q.** How did the Kb turn out when `CC[C@H](C)N1CCN(C(=O)C2CCN(c3ccc(C#N)cc3)CC2)CC1` [Example E104] was run?
**A.** < 3.16 nM

**Q.** `CC(C)N1CCN(C(=O)C2CCN(c3ccc(C(=O)C4CC4)cc3)CC2)CC1` [Example E105, 1-Isopropyl-4-[1-(4-cyclopropylcarbonylphenyl)-piperidine4-carbonyl]-piperazine] was tested. Which Kb did it give?
**A.** < 3.16 nM

**Q.** `Cc1ccc2cc(N3CCC(C(=O)N4CCN(C(C)C)CC4)CC3)ccc2n1` [Example E118, 1-Isopropyl-4-[1-(2-methyl-quinolin-6-yl)-piperidine-4-carbonyl]-piperazine] was tested. Which Kb did it give?
**A.** < 3.16 nM

**Q.** `CC(C)N1CCN(C(=O)C2CCN(c3ccc(C#N)nc3)CC2)CC1` [Example E129, 1-Isopropyl-4-[1-(6-cyano-pyridin-3-yl)-piperidine-4-carbonyl]-piperazine] was tested. Which Kb did it give?
**A.** < 3.16 nM

**Q.** `CC(C)N1CCCN(C(=O)C2CCN(c3ccc(C(F)(F)F)nc3)CC2)CC1` [Example E135, 1-Isopropyl-4-[1-(6-trifluoromethylpyridin-3-yl)-pipenidine-4-carbonyl]-[1,4]-diazepane, hydrochloride] was tested. Which Kb did it give?
**A.** < 0.316 nM

**Q.** `O=C(C1CCN(c2ccc(C(F)(F)F)nc2)CC1)N1CCCN(C2CCC2)CC1` [Example E136, 1-Cyclobutyl-4-[1-(6-trifluoromethylpyridin-3-yl)-piperidine4-carbonyl]-[1,4]-diazepane] was tested. Which Kb did it give?
**A.** < 3.16 nM

**Q.** For `N#Cc1cc(N2CCC(C(=O)N3CCCN(C4CCC4)CC3)CC2)ccn1` [Example E137, 1-Cyclobutyl-4-[1-(2-cyanopyridin-4-yl)-piperidine-4-carbonyl]-[1,4]-diazepane], which Kb is on record?
**A.** < 3.16 nM

**Q.** How did the Kb turn out when `CC(C)N1CCCN(C(=O)C2CCN(c3ccc(C(F)(F)F)nn3)CC2)CC1` [Example E138, 1-Isopropyl-4-[1-(6-trifluoromethylpyridazin-3-yl)-piperidine-4-carbonyl]-[1,4]-diazepane] was run?
**A.** < 3.16 nM

**Q.** With `CC(C)N1CCCN(C(=O)C2CCN(c3cnc(C(F)(F)F)cn3)CC2)CC1` [Example E139, 1-Isopropyl-4-[1-(5-trifluoromethylpyrazin-2-yl)-piperidine4-carbonyl]-[1,4]-diazepane] as the compound, how does the Kb read?
**A.** < 3.16 nM

**Q.** For `CC(=O)c1ccc(N2CCC(C(=O)N3CCCN(C(C)C)CC3)CC2)cc1` [Example E150, 1-Isopropyl-4-[1-(4-acetylphenyl)-piperidine-4-carbonyl]-[1,4]-diazepane], which Kb is on record?
**A.** < 1 nM

**Q.** With `CCC(=O)c1ccc(N2CCC(C(=O)N3CCCN(C(C)C)CC3)CC2)cc1` [Example E151, 1-Isopropyl-4-[1-(4-propanoylphenyl)-piperidine-4-carbonyl]-[1,4]-diazepane] as the compound, how does the Kb read?
**A.** < 1 nM

**Q.** With `Cc1ncc(-c2ccc(N3CCC(C(=O)N4CCCN(C(C)C)CC4)CC3)cc2)o1` [Example E154, 1-Isopropyl-4-{1-[4-(2-methyl-1,3-oxazol-5-yl)phenyl]-piperidine4-carbonyl}-[1,4]-diazepane] as the compound, how does the Kb read?
**A.** < 3.16 nM
